Experimental data published in patent US20240287062A1, “NAPHTHYRIDONE COMPOUNDS FOR INHIBITION OF RAF KINASES AND/OR BCR-ABL TYROSINE KINASES” (Enliven Inc., priority 2021, published 2024).
Counter-ions that a name gives are not always drawn. Like-named read-outs stand apart in the source and are kept apart here.

Assays:
Type in all cases: cell-based
[1] = tested on: phosphorylated ERK (pERK); assay: Detection of phosphorylated ERK (pERK), AlphaLISA in A375 cells; settings: four hours incubation, inhibition of ERK phosphorylation, read-out: PERK ELISA (IC50)
Protocol: A375 cells were counted and seeded at 10,000 cells/well in 384 well plates (Corning 3764) and allowed to adhere overnight.
Compounds were dissolved and serially diluted in DMSO. The compounds were then added, mixed, and incubated for four hours at 37° C., 5% CO2. Compounds were added using four-fold dilutions at final concentrations ranging from 10 μM to 0.01 nM. DMSO only and 10 uM staurosporine were added as high and low controls.
Following the four-hour incubation with compounds, cell lysates were prepared and AlphaLISA assay measuring phosphorylated ERK was performed. Media was removed using the Apricot Designs pipettor. Lysis buffer was made from 1× AlphaLISA SureFire Assay Kit (AlphaLISA SureFire Ultra pERK 12 (Thr202/Tyr204) ALSU-PERK-A50K) lysis buffer with protease and phosphatase inhibitors. Cells were lysed by adding 10 uL to all the wells and mixed for 40 minutes on a plate shaker. 10 uL cell lysate was transferred to a new Optiplate (PerkinElmer 6007290) and incubated with 5 uL 1× acceptor mix for 2 hours in the dark. 5 uL of 1× donor mix was added to all wells and mixed by shaking followed by overnight incubation in the dark.
pERK AlphaLISA signal was read on the Envision using standard AlphaLISA settings. Percent inhibition of ERK phosphorylation was calculated by % Inhibition=100×(LumHC−LumSample)/(LumHC−LumLC). The low and high controls (LC/HC) are generated from lysate from wells with cells treated with DMSO or […] Staurosporine (BioAustralis, cat #BIA-S1086), […]. IC50 values were calculated by fitting the Curve using XLfit (v5.3.1.3), equation 201: Y=Bottom+(Top−Bottom)/(1+10^((Log IC50−X)*HillSlope)).

A375 (BRAF V600E) = assay: Cell viability assay (CellTiter Glo)
Protocol: (§1) Cell viability was measured in the following MAPK pathway mutant cancer cell lines: A375 (BRAF V600E), HepG2 (NRAS Q61L), SK-MEL-30 (NRAS Q61K), and OCI-AML-2 (MBNL1-CRAF fusion). Cell viability was also measured in K562 cells.
(§2) A375, HepG2, SK-MEL-30 and OCI-AML-2 cells were grown in the appropriate growth medium as described in Table B2 below, and harvested at 50-80% confluence. Cells were counted and seeded at their appropriate density (see Table B1) in a 384-well plate (Corning 3570). A375, HepG2 and SK-MEL-30 were allowed to adhere overnight prior to treatment and the OCI-AML-2 were treated immediately for the indicated drug treatment times (Table 6).
(§3) Table 6 provides the growth media, number of cells seeded per well and drug treatment times for the each cell line. K562 cells were grown as described in Example B1 above.
(§4) Compounds were dissolved in DMSO and serially diluted. Serially-diluted compound or a DMSO only control (high control, “HC”) was added to the plated cells in each well. Compounds were tested at concentrations of about 10 μM to 0.51 nM, using three-fold dilutions. The final proportion of DMSO never exceeded 0.1%.
(§5) Plates were placed in a 37° C., […] incubator for the indicated treatment times (Table B1). Plates were then removed from the incubator and equilibrated for 15 minutes at room temperature. 40 μl of CellTiter Glo reagent (Promega) was added to measure the relative level of metabolically active cells by quantifying intracellular ATP concentrations. Plates were incubated for 30 minutes at room temperature, and luminescence was measured. Percent viability was normalized to a vehicle control only using the following formula: 0 viability=100×(LumSample−LumLC)/(LumHC−LumLC). Graphical curves were fitted using a nonlinear regression model with a sigmoidal dose response.

HepG2 (NRAS Q61L) = assay: Cell viability assay (CellTiter Glo); settings: HepG2, 750 cells per well, read-out: BRAF Cytotoxicity (IC50, nM) HEPG2
Protocol: as §1, §2, §3, §4, §5

SK-MEL-30 (NRAS Q61K) = assay: Cell viability assay (CellTiter Glo); settings: SK-MEL-30, 750 cells per well, read-out: BRAF Cytotoxicity (IC50, nM) SK-MEL-30
Protocol: as §1, §2, §3, §4, §5

[2] = tested on: OCI-AML-2 (MBNL1-CRAF fusion); assay: Cell viability assay (CellTiter Glo); settings: OCI-AML-2, 1000 cells per well, read-out: BRAF Cytotoxicity (IC50, nM) OCI-AML-2
Protocol: as §1, §2, §3, §4, §5

[3] = Homo sapiens, A-375, 72 h, A375, 1000 cells seeded per well, read-out: BRAF Cytotoxicity (IC50, nM) A375 (1000 cells)
[4] = A375, 250 cells seeded per well, 72 hours, read-out: BRAF Cytotoxicity (IC50, nM) A375 (250 cells)
[5] = A375, 1000 cells seeded per well, 72 hours, read-out: BRAF Cytotoxicity (IC50, nM) A375 (1000 cells)

IC50 ([1]; Homo sapiens, A-375, 4 h)	IC50 [1]	SMILES	also measured
	373 nM	CCC(O)c1cc(C)c(-c2cc3cnc(NC(C)=O)cc3n(C)c2=O)cn1 (single isomer, unassigned) [Example S59, Enantiomer B, N-(3-(6-(1-hydroxypropyl)-4-methylpyridin-3-yl)-1-methyl-2-oxo-1,2-dihydro-1,6-naphthyridin-7-yl)acetamide]	
	19 nM	COCC(O)c1cc(C)c(-c2cc3cnc(NC(=O)C4CC4)cc3n(C)c2=O)cn1 (single isomer, unassigned) [Example S60, Enantiomer B, N-(3-{6-[1-hydroxy-2-methoxyethyl]-4-methylpyridin-3-yl}-1-methyl-2-oxo-1,6-naphthyridin-7-yl)cyclopropanecarboxamide]	IC50 (HepG2 (NRAS Q61L); 120 hours): 225 nM; IC50 (A375 (BRAF V600E); [4]): 1070 nM; IC50 (SK-MEL-30 (NRAS Q61K); 120 hours): 3260 nM
	120 nM	COCC(O)c1cc(C)c(-c2cc3cnc(NC(=O)C4CC4)cc3n(C)c2=O)cn1 (single isomer, unassigned) [Example S60, Enantiomer A, N-(3-{6-[1-hydroxy-2-methoxyethyl]-4-methylpyridin-3-yl}-1-methyl-2-oxo-1,6-naphthyridin-7-yl)cyclopropanecarboxamide]	IC50 (HepG2 (NRAS Q61L); 120 hours): > 10000 nM; IC50 (A375 (BRAF V600E); [4]): 5950 nM; IC50 (SK-MEL-30 (NRAS Q61K); 120 hours): > 10000 nM
	14.7 nM	CCCC(O)c1cc(C)c(-c2cc3cnc(NC(=O)C4CC4)cc3n(C)c2=O)cn1 (single isomer, unassigned) [Example S42, Enantiomer B, N-(3-(6-(1-hydroxybutyl)-4-methylpyridin-3-yl)-1-methyl-2-oxo-1,2-dihydro-1,6-naphthyridin-7-yl)cyclopropanecarboxamide]	IC50 (A375 (BRAF V600E); [5]): 141 nM
	55.1 nM	CCCC(O)c1cc(C)c(-c2cc3cnc(NC(=O)C4CC4)cc3n(C)c2=O)cn1 (single isomer, unassigned) [Example S42, Enantiomer A, N-(3-(6-(1-hydroxybutyl)-4-methylpyridin-3-yl)-1-methyl-2-oxo-1,2-dihydro-1,6-naphthyridin-7-yl)cyclopropanecarboxamide]	IC50 (A375 (BRAF V600E); [5]): 930 nM
	23.9 nM	CCCC(O)c1cc(C)c(-c2cc3cnc(NC(C)=O)cc3n(C)c2=O)cn1 (single isomer, unassigned) [Example S67, Enantiomer B, N-(3-{6-[1-hydroxybutyl]-4-methylpyridin-3-yl}-1-methyl-2-oxo-1,6-naphthyridin-7-yl)acetamide]	
	73.8 nM	CCC(O)c1cc(C)c(-c2cc3cnc(NC(=O)[C@H]4CC4(F)F)cc3n(C)c2=O)cn1 (single isomer, unassigned) [Example S49, Isomer A]	IC50 (HepG2 (NRAS Q61L); 120 hours): 2750 nM; IC50 (SK-MEL-30 (NRAS Q61K); 120 hours): > 10000 nM; IC50 ([2]; 72 hours): > 10000 nM
	230 nM	CCC(O)c1cc(C)c(-c2cc3cnc(NC(=O)[C@@H]4C[C@@H]4F)cc3n(C)c2=O)cn1 (single isomer, unassigned; isomer b) [Example S40, Isomer B]	IC50 (A375 (BRAF V600E); [5]): 940 nM

Continued, compound first:

SMILES	IC50 ([1]; Homo sapiens, A-375, 4 h)	IC50 [1]	also measured
CC[C@H](O)c1cc(C)c(-c2cc3cnc(NC(=O)[C@@H]4CC4(F)F)cc3n(C)c2=O)cn1 (single isomer, unassigned) [Compound 124]	63.5 nM		
CC[C@@H](O)c1cc(C)c(-c2cc3cnc(NC(=O)[C@H]4C[C@H]4F)cc3n(C)c2=O)cn1 [Compound 109, (1R,2R)-2-fluoro-N-(3-(6-((R)-1-hydroxypropyl)-4-methylpyridin-3-yl)-1-methyl-2-oxo-1,2-dihydro-1,6-naphthyridin-7-yl)cyclopropane-1-carboxamide]	76.6 nM		IC50 (A375 (BRAF V600E); [3]): 1630 nM
CC[C@@H](O)c1cc(C)c(-c2cc3cnc(NC(=O)[C@@H]4CC4(F)F)cc3n(C)c2=O)cn1 (single isomer, unassigned) [Compound 123]	119 nM		
CCC(O)c1cc(C)c(-c2cc3cnc(NC(=O)C4CC4)cc3n(C)c2=O)c(C)c1 (stereo in doubt) [Compound 119, (R)—N-(3-(4-(1-hydroxypropyl)-2,6-dimethylphenyl)-1-methyl-2-oxo-1,2-dihydro-1,6-naphthyridin-7-yl)cyclopropanecarboxamide]		313 nM	
CCCC(=O)c1cc(C)c(-c2cc3cnc(NC(=O)[C@H]4C[C@H]4F)cc3n(C)c2=O)cn1 [Compound 151, (1R,2R)—N-(3-(6-butyryl-4-methylpyridin-3-yl)-1-methyl-2-oxo-1,2-dihydro-1,6-naphthyridin-7-yl)-2-fluorocyclopropane-1-carboxamide]	10.4 nM		IC50 (HepG2 (NRAS Q61L); Homo sapiens, HepG2, 120 h): 37.3 nM; IC50 (SK-MEL-30 (NRAS Q61K); Homo sapiens, SK-MEL-30, 120 h): 244 nM; IC50 ([2]; Homo sapiens, OCI-AML2, 72 h): 448 nM
CC[C@@H](O)c1cc(C)c(-c2cc3cnc(NC(=O)C4CC4)cc3n(C)c2=O)cn1 [Compound 68, (R)—N-(3-(6-(1-hydroxypropyl)-4-methylpyridin-3-yl)-1-methyl-2-oxo-1,2-dihydro-1,6-naphthyridin-7-yl)cyclopropanecarboxamide]	249 nM		IC50 (A375 (BRAF V600E); [3]): 871 nM; IC50 ([2]; Homo sapiens, OCI-AML2, 72 h): 2510 nM
CCC(O)c1cc(C)c(-c2cc3cnc(NC(=O)C4CC4)cc3n(C)c2=O)c(C)c1 (stereo in doubt) [Compound 118, (R)—N-(3-(4-(1-hydroxypropyl)-2,6-dimethylphenyl)-1-methyl-2-oxo-1,2-dihydro-1,6-naphthyridin-7-yl)cyclopropanecarboxamide]		1250 nM	
CCC(O)c1cc(C)c(-c2cc3cnc(NC(=O)C4CC4)cc3n(C)c2=O)c(C)c1 (stereo in doubt) [Compound 121, (S)—N-(3-(4-(1-hydroxypropyl)-2,6-dimethylphenyl)-1-methyl-2-oxo-1,2-dihydro-1,6-naphthyridin-7-yl)cyclopropanecarboxamide]		151 nM	
Cc1cc([C@@H](O)C(C)(F)F)ncc1-c1cc2cnc(NC(=O)C3CC3)cc2n(C)c1=O (single isomer, unassigned) [Compound 117]	61.3 nM		
Cc1cc(-n2cccn2)ncc1-c1cc2cnc(NC(=O)C3CC3)cc2n(C)c1=O [Compound 122, N-{1-methyl-3-[4-methyl-6-(pyrazol-1-yl)pyridin-3-yl]-2-oxo-1,6-naphthyridin-7-yl}cyclopropanecarboxamide]	478 nM		
Cc1cc([C@H](O)C(C)(F)F)ncc1-c1cc2cnc(NC(=O)C3CC3)cc2n(C)c1=O (single isomer, unassigned) [Compound 116, formate]	78.1 nM		
CCC(O)c1cc(C)c(-c2cc3cnc(NC(=O)C4CC4)cc3n(C)c2=O)c(C)c1 (stereo in doubt) [Compound 120, (S)—N-(3-(4-(1-hydroxypropyl)-2,6-dimethylphenyl)-1-methyl-2-oxo-1,2-dihydro-1,6-naphthyridin-7-yl)cyclopropanecarboxamide]		> 10000 nM	
